Experimental data reported in US20140073778A9, “CONJUGATES COMPRISING HYDROXYALKYL STARCH AND A CYTOTOXIC AGENT AND PROCESS FOR THEIR PREPARATION” (priority 2010, published 2014).
Marks after values point to notes of the source that are not given here.

Experiments:
[1] = Body weight change / toxicity in MAXF-401 xenograft-bearing mice; format: in vivo, NMRI nu/nu mice; conditions: Table 18, CA4P 50, 40 mg/kg/inj. d 0, 10, CCs1 60 d 0, CCs2 60, 40 d 0, 10
Method: All experiments were conducted according to the guidelines of the German Animal Welfare Act (Tierschutzgesetz). Animal health was examined prior to tumor implantation and randomization to ensure that only animals without any symptoms of disease were selected to enter testing procedures. During the experiments, animals were monitored daily regarding tumor burden, general condition, feed and water supply.
(§1) All test items were formulated in 0.9% NaCl solution and given as i.v. bolus injection.
(§2) Measurement of tumor volume and body weight as well as calculations of relative tumor volumes were carries out analgue to the procedure described in 2.3.

[2] = test system: human mammary carcinoma (MAXF-401); assay: Tumor growth inhibition (relative tumor volume) in MAXF-401 xenograft model; format: in vivo, human (xenograft in NMRI nu/nu mice)
Description: (§3) Mouse strain: NMRI nu/nu, female Animals supplied by: Charles River, Germany Age of mice at implantation: 5-7 weeks
(§4) The tumor xenografts LXFL-529 and MAXF-401 (Fiebig H H, Berger D P, Dengler W A, Wallbrecher E, Winterhalter B R: Combined In Vitro/In Vivo Test Procedure with Human Tumor Xenografts for New Drug Development. Contrib. Oncol., Basel, Karger, 1992, Vol. 42, pp 321-351) used in this study were derived from surgical specimen from patients treated at the University Hospital in Freiburg, Germany, and directly implanted into nude mice. Prior to surgery, most of the patients had not received any chemotherapy.
(§5) Tumor fragments were obtained from xenografts in serial passage in nude mice. After removal from donor mice, tumors were cut into fragments (4-5 mm diameter) and placed in PBS until subcutaneous implantation. Recipient mice were anaesthetized by inhalation of isoflurane. A small incision was made in the back and one tumor fragment per animal was transplanted with tweezers. The mice were monitored daily.
At randomization, tumor-bearing animals were stratified according to tumor volume into treatment and vehicle (control) groups. Only animals carrying one tumor of appropriate size (approximately 50-250 mm^3) were considered for randomization. Mice were randomized when the required number of mice qualified for randomization. […]

[3] = Body weight change as sign of toxicity in HT-29 xenograft-bearing mice; format: in vivo, NMRI:nu/nu mice
Method: (§6) […] The application volume was 0.2 ml/20 g mouse body weight. The test compounds, the vehicle controls and the reference compounds were all given intravenously (i.v.).
(§7) Tumor growth inhibition was used as therapeutic parameter. Additionally, body weight change was determined as signs for toxicity (particularly, potential hematological or gastrointestinal side effects).
Individual body weights of mice were determined twice weekly and mean body weight per group was related to the initial value in percent (body weight change, BWC).
On the day of necropsy mice were sacrificed by cervical dislocation and inspected for gross organ changes.
The loss of body weight is known to be an indicator of gastrointestinal and hepatotoxicity of the tested compound.

[4] = test system: human colon carcinoma HT-29; assay: Tumor growth inhibition (relative tumor volume, T/C) in s.c. HT-29 xenograft model; format: in vivo, human (xenograft in NMRI:nu/nu mice)
Method: The cells were obtained from ATCC and are cryo-preserved within the EPO tumor bank. They were thawed, expanded in vitro and transplanted as cell suspension subcutaneously (s.c.) in female NMRI:nu/nu mice. […] It was therefore selected for this study.
For experimental use 10^7 tumor cells/mouse from the in vitro passage were transplanted s.c. into the flank of each of 10 mice/group at day 0.
as §6, §7
Tumor diameters were measured twice weekly with a caliper. Tumor volumes were calculated according to V=(length×(width)^2)/2. For calculation of the relative tumor volume (RTV) the tumor volumes at each measurement day were related to the day of first treatment. At each measurement day the median and mean tumor volumes per group and also the treated to control (T/C) values in percent were calculated.
Descriptive statistics were performed on the data of body weight and tumor volume. […] Statistical evaluation was performed with the U-test of Mann and Whitney with a significance level of p≦0.05, using the Windows program […] 6.
Solutions were prepared immediately before injection by solving the conjugates in saline solution by vortexing in combination with centrifugation until a clear solution of the necessary concentration of the drug was obtained.

[5] = test system: human lung carcinoma LXFL-529; assay: Tumor growth inhibition (relative tumor volume) in LXFL-529 xenograft model; format: in vivo, human (xenograft in NMRI nu/nu mice)
Description: as §3, §4, §5
At randomization, tumor-bearing animals were stratified according to tumor volume into treatment and vehicle (control) groups. Only animals carrying one tumor of appropriate size (approximately 50-250 mm^3) were considered for randomization. Mice were randomized when the required number of mice qualified for randomization. The day of randomization was designated as day 0, which was also the first day of dosing.
as §1, §2

Q: For COc1ccc(/C=C\c2cc(OC)c(OC)c(OC)c2)cc1OP(=O)([O-])[O-].[Na+].[Na+] [combretastatin A4 phosphate, Combretastatin A4 phosphate disodium salt], which “BWC [%] (at day)” value ([1]; day of value in parentheses) is on record?
A: Its value is −1.8 (7) %.

Q: What about the “Mortality (at day)” value ([1]; deaths of 4 mice (day)) of the same molecule?
A: The value was 0.

Q: What about the “inhibition of tumor growth” value ([2]; MAXF-401 xenografts in nude mice, i.v. bolus) of the same molecule?
A: Its value is “only modest anti-tumor activity”.

Q: What about the “RTV T/C (%) Optimum (at day)” value ([2]; Table 18, CA4P 50, 40 mg/kg/inj. d 0, 10, CCs1 60 d 0, CCs2 60, 40 d 0, 10, day of optimum in parentheses) of the same molecule?
A: The value was 59.8 (13) %.

Q: With CCc1c2c(nc3ccc(OC(=O)N4CCC(N5CCCCC5)CC4)cc13)-c1cc3c(c(=O)n1C2)COC(=O)[C@]3(O)CC [Irinotecan] as the molecule, how does the “Toxic death (day)” value ([3]; Table 14, number of toxic deaths of 8 mice, Irinotecan 15 mg/kg/inj. d 9-13, conjugates 60 mg/kg/inj. d 9, day of death in parentheses) read?
A: The value was 1.

Q: And the “Toxic death (at day)” value ([3]; Table 17, number of toxic deaths per group (day), treatment d 8, Irinotecan 60, CSN21 30, CSN23 60, CSN22 and CIr1-3 80 mg/kg/inj.)?
A: Its value is 1 (20).

Q: What about the “RTV T/C (%) Optimum (at day)” value ([4]; Table 14, optimum at day 54, Irinotecan 15 mg/kg/inj. d 9-13, conjugates 60 mg/kg/inj. d 9) of the same molecule?
A: Its value is 48.2%.

Q: And the “RTV T/C (%) Optimum (at day)” value ([4]; Table 15, Irinotecan 15 mg/kg/inj. d 8-12, conjugates 60 mg/kg/inj. d 8, day of optimum printed below value (30; CSN10 34; CSN13 13))?
A: The value was 27.7* %.

Q: And the “RTV T/C (%) Optimum (at day)” value ([4]; Table 16, 60 mg/kg/inj. d 7, day of optimum in parentheses (21-42))?
A: Its value is 66.3%.

Q: With COc1cc([C@@H]2c3cc4c(cc3[C@@H](O[C@@H]3O[C@@H]5CO[C@@H](C)O[C@H]5[C@H](O)[C@H]3O)[C@H]3COC(=O)[C@H]23)OCO4)cc(OC)c1O [V-16 (Etoposid)] as the molecule, how does the “Tumor volume cm^3/d 16” value ([5]; Table 19, day 16, treatment d 0, 3, 7, Etoposid 20 mg/kg/inj., CEt1 20, 40, 50 mg/kg/inj.) read?
A: The value was 0.293 +/− 0.137 cm^3.

Q: And the “RTV T/C (%) Optimum (at day)” value ([5]; Table 19, optimum at day 16, treatment d 0, 3, 7, Etoposid 20 mg/kg/inj., CEt1 20, 40, 50 mg/kg/inj.)?
A: Its value is 15.5 (16) %.

Q: And the “RTV T/C (%) re-normalized on day 7” value ([5]; Table 19, re-normalized on day 7, treatment d 0, 3, 7, Etoposid 20 mg/kg/inj., CEt1 20, 40, 50 mg/kg/inj.)?
A: The value was 22.6%.

Q: Which results are given for COc1cc([C@@H]2c3cc4c(cc3[C@@H](O[C@@H]3O[C@@H]5CO[C@@H](C)O[C@H]5[C@H](O)[C@H]3O)[C@H]3COC(=O)[C@H]23)OCO4)cc(OC)c1O [etoposide, Etoposide]?
A: loss of tumor volume between d7 and d16 ([5]; LXFL-529 xenografts in nude mice, tumor shrinkage after day 7): 26%; tumors still shrinking or at least stabile ([5]; LXFL-529 xenografts, at the last day of the experiment): 2/5
